Source: the supplement of paper PMC8882468

Test system: HCI-001 (organoid from a triple-negative breast cancer xenograft)
Assay: CTG-3D luminescence at 96 h relative to day-0 seeding control (ratio to day 0); higher = more growth / less cytotoxicity; PDxO 3D drug screen, 96 h, CTG-3D normalised to day-0 seeding control.
Conditions: 1 µM; days in culture: 346

Compared with COc1cc2c(Oc3ccc4[nH]c(C)cc4c3F)ncnc2cc1OCCCN1CCCC1 [cediranib], Cc1cc(Nc2ncnc3ccc(NC4=NC(C)(C)CO4)cc23)ccc1Oc1ccn2ncnc2c1 [tucatinib] is lower in “CTG-3D luminescence at 96 h” value: 1.41 for the first, 1.24 for the second.

Compared with CC(C)n1nc(-c2ccc3oc(N)nc3c2)c2c(N)ncnc21 [sapanisertib], C=CCn1c(=O)c2cnc(Nc3ccc(N4CCN(C)CC4)cc3)nc2n1-c1cccc(C(C)(C)O)n1 [adavosertib] is higher in “CTG-3D luminescence at 96 h” value: 0.577 for the first, 1.48 for the second.

Going from C[C@H](NC(=O)CCC(F)(F)F)C(=O)N[C@@H]1C(=O)N(CCO)c2ncccc2-c2ccccc21 [crenigacestat] to O=C(/C=C/c1cccnc1)NCCCCC1CCN(C(=O)c2ccccc2)CC1 [FK866], the “CTG-3D luminescence at 96 h” value falls from 1.32 to 0.0715.

Going from C[C@]12CC[C@@H]3c4ccc(O)cc4C[C@@H](CCCCCCCCC[S+]([O-])CCCC(F)(F)C(F)(F)F)[C@H]3[C@@H]1CC[C@@H]2O (stereo partly specified) [fulvestrant] to O=C(c1ccc(F)c(F)c1Nc1ccc(I)cc1F)N1CC(O)([C@@H]2CCCCN2)C1 [cobimetinib], the “CTG-3D luminescence at 96 h” value falls from 1.42 to 1.13.

In the case of CS(=O)(=O)c1ccc(C(=O)Nc2ccc(Cl)c(-c3ccccn3)c2)c(Cl)c1 [vismodegib], the “CTG-3D luminescence at 96 h” value is reported as 1.47.

Same assay, conditions: 1 µM; days in culture: 364

Going from COc1cc2c(Oc3ccc4[nH]c(C)cc4c3F)ncnc2cc1OCCCN1CCCC1 [cediranib] to Cc1cc(Nc2ncnc3ccc(NC4=NC(C)(C)CO4)cc23)ccc1Oc1ccn2ncnc2c1 [tucatinib], the “CTG-3D luminescence at 96 h” value falls from 1.23 to 0.895.

Compared with CC(C)n1nc(-c2ccc3oc(N)nc3c2)c2c(N)ncnc21 [sapanisertib], C=CCn1c(=O)c2cnc(Nc3ccc(N4CCN(C)CC4)cc3)nc2n1-c1cccc(C(C)(C)O)n1 [adavosertib] is higher in “CTG-3D luminescence at 96 h” value: 0.464 for the first, 0.983 for the second.

Going from C[C@H](NC(=O)CCC(F)(F)F)C(=O)N[C@@H]1C(=O)N(CCO)c2ncccc2-c2ccccc21 [crenigacestat] to O=C(/C=C/c1cccnc1)NCCCCC1CCN(C(=O)c2ccccc2)CC1 [FK866], the “CTG-3D luminescence at 96 h” value falls from 1.1 to 0.0511.

Compared with C[C@]12CC[C@@H]3c4ccc(O)cc4C[C@@H](CCCCCCCCC[S+]([O-])CCCC(F)(F)C(F)(F)F)[C@H]3[C@@H]1CC[C@@H]2O (stereo partly specified) [fulvestrant], O=C(c1ccc(F)c(F)c1Nc1ccc(I)cc1F)N1CC(O)([C@@H]2CCCCN2)C1 [cobimetinib] is lower in “CTG-3D luminescence at 96 h” value: 0.954 for the first, 0.9 for the second.

For CS(=O)(=O)c1ccc(C(=O)Nc2ccc(Cl)c(-c3ccccn3)c2)c(Cl)c1 [vismodegib], the “CTG-3D luminescence at 96 h” value was 1.47.

Same assay, conditions: 10 µM; days in culture: 240

First: COc1cc2c(Oc3ccc4[nH]c(C)cc4c3F)ncnc2cc1OCCCN1CCCC1 [cediranib]
Second: Cc1cc(Nc2ncnc3ccc(NC4=NC(C)(C)CO4)cc23)ccc1Oc1ccn2ncnc2c1 [tucatinib]
The “CTG-3D luminescence at 96 h” value of the first is lower: 0.491 for the first, 1.02 for the second.

First: CC(C)n1nc(-c2ccc3oc(N)nc3c2)c2c(N)ncnc21 [sapanisertib]
Second: C=CCn1c(=O)c2cnc(Nc3ccc(N4CCN(C)CC4)cc3)nc2n1-c1cccc(C(C)(C)O)n1 [adavosertib]
The “CTG-3D luminescence at 96 h” value of the first is higher: 0.311 for the first, 0.244 for the second.

Compared with C[C@H](NC(=O)CCC(F)(F)F)C(=O)N[C@@H]1C(=O)N(CCO)c2ncccc2-c2ccccc21 [crenigacestat], O=C(/C=C/c1cccnc1)NCCCCC1CCN(C(=O)c2ccccc2)CC1 [FK866] is lower in “CTG-3D luminescence at 96 h” value: 1.2 for the first, 0.0983 for the second.

First: C[C@]12CC[C@@H]3c4ccc(O)cc4C[C@@H](CCCCCCCCC[S+]([O-])CCCC(F)(F)C(F)(F)F)[C@H]3[C@@H]1CC[C@@H]2O (stereo partly specified) [fulvestrant]
Second: O=C(c1ccc(F)c(F)c1Nc1ccc(I)cc1F)N1CC(O)([C@@H]2CCCCN2)C1 [cobimetinib]
The “CTG-3D luminescence at 96 h” value of the first is higher: 1.06 for the first, 0.812 for the second.

CS(=O)(=O)c1ccc(C(=O)Nc2ccc(Cl)c(-c3ccccn3)c2)c(Cl)c1 [vismodegib] was tested, and the “CTG-3D luminescence at 96 h” value was 1.19.

Same assay, conditions: 10 µM; days in culture: 260

Compared with COc1cc2c(Oc3ccc4[nH]c(C)cc4c3F)ncnc2cc1OCCCN1CCCC1 [cediranib], Cc1cc(Nc2ncnc3ccc(NC4=NC(C)(C)CO4)cc23)ccc1Oc1ccn2ncnc2c1 [tucatinib] is higher in “CTG-3D luminescence at 96 h” value: 0.0612 for the first, 1.46 for the second.

Compared with CC(C)n1nc(-c2ccc3oc(N)nc3c2)c2c(N)ncnc21 [sapanisertib], C=CCn1c(=O)c2cnc(Nc3ccc(N4CCN(C)CC4)cc3)nc2n1-c1cccc(C(C)(C)O)n1 [adavosertib] is lower in “CTG-3D luminescence at 96 h” value: 0.468 for the first, 0.27 for the second.

First: C[C@H](NC(=O)CCC(F)(F)F)C(=O)N[C@@H]1C(=O)N(CCO)c2ncccc2-c2ccccc21 [crenigacestat]
Second: O=C(/C=C/c1cccnc1)NCCCCC1CCN(C(=O)c2ccccc2)CC1 [FK866]
The “CTG-3D luminescence at 96 h” value of the first is higher: 1.84 for the first, 0.113 for the second.

Compared with C[C@]12CC[C@@H]3c4ccc(O)cc4C[C@@H](CCCCCCCCC[S+]([O-])CCCC(F)(F)C(F)(F)F)[C@H]3[C@@H]1CC[C@@H]2O (stereo partly specified) [fulvestrant], O=C(c1ccc(F)c(F)c1Nc1ccc(I)cc1F)N1CC(O)([C@@H]2CCCCN2)C1 [cobimetinib] is higher in “CTG-3D luminescence at 96 h” value: 1.46 for the first, 1.5 for the second.

For CS(=O)(=O)c1ccc(C(=O)Nc2ccc(Cl)c(-c3ccccn3)c2)c(Cl)c1 [vismodegib], the “CTG-3D luminescence at 96 h” value was 1.91.
